The values that follow come from patent US5646308A, “Benzopyran derivatives” (Chugai Seiyaku Kabushiki Kaisha, priority 1992, dated 1997).

The test system of one test is Rat Aorta. In words: Test with Excised Aorta of Rat: relaxation of lasting KCl-induced contraction. Also on record: species or system male Sprague Dawley rat. The note with it: rat thoracic aorta rings, 30 mM KCl contraction, Krebs-Henseleit, 37° C., tension 2 g; read-out: IC50 (50% inhibitory concentration, relaxation of lasting contraction following KCl addition), Rat Aorta. On the procedure:
Test with Excised Aorta of Rat
The thoracic aorta was excised from a male Sprague Dawley rat (450 to 600 g) and cut into 2 mm wide ring preparations. Each preparation was suspended in 10 ml of an organ bath containing a Krebs-Henseleit solution (NaCl: 119; KCl: 4.8; CaCl2 ·2H2 O: 2.53; KH2 PO4 : 1.2; MgSO4 ·7H2 O: 1.2; NaHCO3 : 24.8; glucose: 10 (mM); 37° C.) under a tension of 2 g, and a mixed gas of 95% O2 and 5% CO2 was bubbled therethrough. Isometric contractions of the preparation were recorded by means of an FD pick-up. […] The activity of a test compound to relax a lasting contraction following the KCl addition was evaluated by obtaining a 50% inhibitory concentration (IC50).
The compounds of the present invention obtained in the foregoing Examples and, for comparison, Cromakalim were used as test compounds.

Test [1] relates to Guinea Pig Tracheal Muscle. In words: Test with Guinea Pig Tracheal Muscle: relaxing activity on spontaneous tension. Also on record: species or system male Hartley guinea pig. The note with it: Cavia porcellus, relaxation by 1 mM aminophylline = 100%, 37° C., tension 1 g, read-out: IC50 (concentration exhibiting 50% relaxing activity), Guinea Pig Tracheal Muscle. The procedure:
Test with Guinea Pig Tracheal Muscle
The trachea was excised from a male Hartley guinea pig (450 to 550 g) to make chain preparations. The preparation was suspended In a bath containing the same Krebs-henseleit solution as used in Test Example 1 (37° C.) through which a mixed gas of 95% O2 and 5% CO2 was bubbled. Isometric contractions of the preparation were recorded under a tension of 1 g.
The same test compounds as used in Test Example 1 were used.

In test [2] the test system is histamine-induced increase in respiratory tract inner pressure. In words: Study on Antiasthmatic Activity: inhibition of histamine-induced increase in respiratory tract inner pressure. It counts as in vivo, male hartley guinea pig. Conditions: Cavia porcellus, 10 min; anesthetized guinea pig, intraduodenal, 0.3% CMC suspension; histamine 5 to 10 μg/kg i.v. every 10 minutes; read-out: ED50 (dose for 50% inhibition of the histamine-induced increase in respiratory tract inner pressure). The procedure:
Study on Antiasthmatic Activity
A mid-line incision was made in the neck of a male hartley guinea pig (600 to 800 g, CRJ) under anesthesia with […] (40 mg/kg, i.p.). The trachea, the […], and the left carotid artery were exposed, and a cannula was inserted into each of them. The inner pressure of the respiratory tract was measured while applying artificial respiration through the tracheal cannula. The blood pressure was measured through the arterial cannula, and the heart rate was determined from the pulse. Pentobarbital for anesthesia maintenance was continuously administered through the venous cannula. A mid-line incision was made on the abdomen to expose the duodenum, and a canuula for intraduodenal administration was inserted thereinto. After the postoperative convalescene of 30 to 60 minutes, histamine (5 to 10 μg/kg) was intravenously administered every 10 minutes. After it was confirmed that a respiratory tract inner pressure rise reaction was stably obtained, a test compound in the form of a 0.3% CMC suspension was intraduodenally administered. The histamine dose was so selected that the respiratory tract inner pressure might rise to 20 to 40 cmH2 O after every intravenous administration. After administration of the test compound, intrvenous administration of histamine at 10 minutes intervals was continued. The histamine-induced increase in respiratory tract inner pressure after the administration of the test compound was compared with that before the administration.

In the case of `N#CCCNC(=O)C1=CC(CF)(CF)Oc2ccc([N+](=O)[O-])cc21` [Example 10, N-(2-cyanoethyl)-2,2-bis(fluoromethyl)-6-nitro-2H-1-benzopyran-4-carboxamide], the IC50 in the test on Rat Aorta was found to be 2.1 nM; in test [1], 5 nM.

Regarding `CN=C(NC#N)C1=CC(C)(COC)Oc2ccc([N+](=O)[O-])cc21` (stereo not shown) [Example 3, N-Cyano-2-methoxymethyl-N',2-dimethyl-6-nitro-2H-1-benzopyran-4-amidine], the IC50 in the test with Rat Aorta worked out at 97 nM; in test [1], 260 nM.

Take `CNC(=S)C1=CC(C)(COC)Oc2ccc([N+](=O)[O-])cc21` (stereo not shown) [Example 2, 2-Methoxymethyl-N,2-dimethyl-6-nitro-2H-1-benzopyran-4-carbothioamide]: the IC50 in the test with Rat Aorta stood at 17 nM; in test [1], 29 nM.

In general, ED50 refers to the dose that gives a 50% effect, or the effect in half of the subjects. Regarding `CNC(=O)C1=CC(C)(COC)Oc2ccc([N+](=O)[O-])cc21` (stereo not shown) [1(2), 2-methoxymethyl-N,2-dimethyl-6-nitro-2H-1-benzopyran-4-carboxamide], the 50% effective dose (ED50) in test [2] was determined as 0.1 mg/kg. The values for the IC50 (in the test with Rat Aorta; in test [1]) were 59 nM and 86 nM, respectively.

For the molecule `CC1(C)Oc2ccc(C#N)cc2[C@@H](N2CCCC2=O)[C@@H]1O` (relative stereo) [Cromakalim, reference compound], in test [2], the ED50 fell in the range of 1 to 3 mg/kg. The IC50 in the test on Rat Aorta came out at 180 nM; in test [1] it was 790 nM.

For the molecule `CNC(=S)C1=CC(CF)(CF)Oc2ccc([N+](=O)[O-])cc21` [Example 8, 2,2-Bis(fluoromethyl)-N-methyl-6-nitro-2H-1-benzopyran-4-carbothioamide], the IC50 in the test on Rat Aorta was found to be 0.28 nM; in test [1] it was 3 nM.

`CNC(=O)C1=CC(CF)(CF)Oc2ccc([N+](=O)[O-])cc21` [Example 7, 2,2-Bis(fluoromethyl)-N-methyl-6-nitro-2H-1-benzopyran-4-carboxamide]: the ED50 in test [2] was determined as 0.01 mg/kg. The IC50 in the test on Rat Aorta worked out at 6 nM; in test [1], 10 nM.

Consider `CN=C(NC#N)C1=CC(CF)(CF)Oc2ccc([N+](=O)[O-])cc21` [Example 9, N-Cyano-2,2-bis(fluoromethyl)-N'-methyl-6-nitro-2H-1-benzopyran-4-amidine], for which the IC50 in the test with Rat Aorta is 14 nM; in test [1], 41 nM.
